From patent US7034208B1, “Ahas inhibiting herbicide resistant wheat and method for selection thereof” (BASF Aktiengellschaft, priority 1991, dated 2006)

What was measured:
[1] = system: AHAS (acetohydroxyacid synthase); assay: AHAS enzyme assay, Initial Assay (M3 Plants); format: biochemical, wheat
Description: Herbicide Application: M3 plants from the four initial mutant plants (FS1, FS2, FS3 and FS4), are tested for metabolic AHAS (acetohydroxyacid synthase) activity. […] When these plants are three weeks old, two plants of each mutant selection, FS1-FS4, receive a second application of PURSUIT™ at 62.5 g/ha while two of each selection are left unsprayed. Sprayed and unsprayed susceptible Fidel plants are also included in this experiment. […] Compound 9 is 2-acetamido-2,3-dimethyl-N-(p-tolylsulfonyl)butyramide, and is described in U.S. Pat. No. 4,883,914.
Enzyme Extraction: For the extraction of AHAS, 10 grams of tissue are powdered in liquid nitrogen and then homogenized in 100 mM potassium phosphate buffer (pH 7.5) containing 10 mM pyruvate, 5 mM MgCl2, 5 uM EDTA, 100 uM FAD, 1 mM valine, 1 mM leucine, 10% glycerol, and 10 mM cysteine. The homogenate is filtered through a nylon cloth (53 uM mesh) and centrifuged at 25,000 g for 20 minutes. […]
AHAS Assay: AHAS activity is measured by estimation of the product, acetolactate, after conversion by decarboxylation in the presence of acid to acetoin. […] The acetoin formed is determined by incubating with creatine (0.17%) and 1-napthol (1.7% in 4N NaOH) by the method of Westerfield (Westerfield, W. W., J. Biol. Chem., 161, 495-502 (1945)). […] The absorption of color complex is measured at 520 nm. […]

[2] = system: M3 wheat plants from selections FS1-FS4 and Fidel; assay: M3 Plant Screen: In vivo (seed soak/preemergence application screen)
Description: M3 plants from the four initial plant selections (labelled FS1, FS2, FS3 and FS4) are screened for PURSUIT™ resistance. Five M3 seeds from each mature infloresence of these initial M2 mutants are disinfested in 70% EtOH for 30 seconds followed by disinfestation in 50% solution containing 2.625% sodium hypochlorite (as described above) for 20 minutes under vacuum with gentle agitation provided by a stir plate. The seeds are rinsed two times in sterile distilled water.
Each set of five seeds is then placed into 10 ml of a 1500 uM solution of PURSUIT™ in a sterile 60×15 mm plastic petri dish and soaked for three days. The seeds are rinsed with water, dried with paper towels and planted approximately ½″ deep in 6×8 inch peat flats containing moist, sterile Metro Mix 350™. These flats are sprayed preemergence with 300 g/ha of PURSUIT™. Controls include M3 seeds from each resistant selection which are disinfested as previously described, soaked in sterile distilled water for three days and then planted. In addition, unselected susceptible Fidel wheat is disinfested as described above and one-half of the seeds treated with PURSUIT™ (seed soak and spray procedure) and the other half are soaked in water alone. The herbicide is applied with a laboratory belt sprayer at a rate of 950 L/ha with a belt speed of 12.5 sec/rev using sprayer nozzle #40015E.
Four weeks after receiving the initial seed soak, the M3 wheat plants are rated according to whether the plants are herbicide resistant, herbicide damaged or dead. The herbicide resistant plants are transplanted individually to 7.5 inch Azalea pots with Metro Mix 350™. A fertilizer, Osmocote™ (Sierra Company, Milpita, Calif.) is added as a top dressing one week after the plants are transplanted. In addition the plants are fertilized regularly with Peter's 20-20-20™ (Grace Company, Cambridge, Mass.). Individual plants are rated against Fidel untreated controls.

[3] = Control 2 = Susceptible wheat seed (Fidel) soaked in herbicide solution, three weeks
[4] = FS1 M3, 1500 uM seed soak + 300 g/ha preemergence, three weeks after herbicide treatment
[5] = FS2 M3, 1500 uM seed soak + 300 g/ha preemergence, three weeks after herbicide treatment
[6] = FS3 M3, 1500 uM seed soak + 300 g/ha preemergence, three weeks after herbicide treatment
[7] = FS4 M3, 1500 uM seed soak + 300 g/ha preemergence, three weeks after herbicide treatment

CCc1cnc(C2=NC(C)(C(C)C)C(=O)N2)c(C(=O)O)c1 (centres unmarked) [PURSUIT, 5-ethyl-2-(4-isopropyl-4-methyl-5-oxo-2-imidazolin-2-yl)-nicotinic acid]
resistance of AHAS to inhibition ([1]; FS1-FS4 M3 plants sprayed with 62.5 g/ha PURSUIT, compared to sprayed wild type): dramatic increase in the AHAS resistance
resistance of AHAS to inhibition ([1]; resistant wheat lines, unsprayed M3 plants): weak resistance
No. of Plants (number of plants raised/number of seeds planted) ([2]; Control 2 = Susceptible wheat seed (Fidel) soaked in herbicide solution): 13/15
Ave. Shoot Height [2, 3]: 21.2 cm
Range Shoot Heights [2, 3]: 8-30 cm
No. of Plants (number of plants raised/number of seeds planted) ([2]; FS1 M3, 1500 uM seed soak + 300 g/ha preemergence): 48/80
Ave. Shoot Height [2, 4]: 9.1 cm
Range Shoot Heights [2, 4]: 2-15 cm
germination frequency ([2]; FS1 M3 seed, 1500 uM seed soak + 300 g/ha preemergence): 60%
No. of Plants (number of plants raised/number of seeds planted) ([2]; FS2 M3, 1500 uM seed soak + 300 g/ha preemergence): 36/80
Ave. Shoot Height [2, 5]: 11.7 cm
Range Shoot Heights [2, 5]: 5-18 cm
germination frequency ([2]; FS2 M3 seed, 1500 uM seed soak + 300 g/ha preemergence): 47.5%
No. of Plants (number of plants raised/number of seeds planted) ([2]; FS3 M3, 1500 uM seed soak + 300 g/ha preemergence): 35/85
Ave. Shoot Height [2, 6]: 8.0 cm
Range Shoot Heights [2, 6]: 1-14.5 cm
germination frequency ([2]; FS3 M3 seed, 1500 uM seed soak + 300 g/ha preemergence): 41.2%
No. of Plants (number of plants raised/number of seeds planted) ([2]; FS4 M3, 1500 uM seed soak + 300 g/ha preemergence): 44/85
Ave. Shoot Height [2, 7]: 21.1 cm
Range Shoot Heights [2, 7]: 5-28 cm
germination frequency ([2]; FS4 M3 seed, 1500 uM seed soak + 300 g/ha preemergence): 55%
survival ([2]; non-mutagenized, non-selected Fidel seed, 1500 uM seed soak and 300 g/ha preemergent): does not survive
herbicide symptoms ([2]; some M3 seedlings, progeny of FS4, 1500 uM seed soak + 300 g/ha preemergence): stunting, twisting and/or chlorotic striping
